Reference: patent publication US10786521B2, “Methods and compositions for treatment of COPD diseases” (Shanghai KE Pharmaceutical Co., LTD, priority 2014, dated 2020)

Assays:
[1] = system: permeable (skinned) airway smooth muscle strips; assay: Ca2+-induced sustained contraction of alpha-toxin permeabilized bronchial ring at constant calcium; assay type: cell-based, C57BL/6J mice; conditions: pCa 4.5 elicited contraction
Description: To assess the requirement of calcium reduction for kudinoside-mediated relaxation, smooth muscle tissues permeable were made. Briefly, the fresh bronchial ring were separated by sharp dissection from C57BL/6J mice. Following incubation for 10 minutes in H-T buffer, the muscle strips were treated for 5 minutes in Ca^2+-free H-T buffer and for 5 minutes in buffer A (30 mmol/L TES, 0.5 mmol/L dithiothreitol, 50 mmol/L KCl, 5 mmol/L K2EGTA, 150 mmol/L sucrose, pH 7.4), and then were subsequently permeabilized in α-toxin (16,000 units/mL; Sigma) in buffer A for 40 minutes at room temperature.
Treatment with […] ionomycin (Sigma) in buffer A for 10 minutes was used to deplete Ca^2+ stores. Permeable tissues were washed in pCa 9.0 solution (20 mmol/L TES, 4 mmol/L K2EGTA, 5.83 mmol/L MgCl2, 7.56 mmol/L potassium propionate, 3.9 mmol/L Na2ATP, 0.5 mmol/L dithioerythritol, 16.2 mmol/L phosphocreatine, 15 U/mL creatine kinase, pH 6.9), followed by incubation in pCa 4.5 solution (20 mmol/L TES, 4 mmol/L CaEGTA, 5.66 mmol/L MgCl2, 7.53 mmol/L potassium propionate, 3.9 mmol/L Na2ATP, 0.5 mmol/L dithioerythritol, 16.2 mmol/L phosphocreatine, 15 U/mL creatine kinase, pH 6.9) to elicit a sustained Ca^2+-induced contraction. After wash out the solution, permeable muscle strips were then incubated with pCa 5.0 solution and relaxed by adding Kudinoside D dissolved in pCa 5.0 solution.

[2] = system: airway smooth muscle (bronchial rings); assay: Relaxation of evoked isometric force of bronchial rings (wire myograph); assay type: cell-based, mice
Description: Briefly, the entire respiratory tree was rapidly removed and immersed in Krebs-Henseleit buffer (118.1 mM NaCl, 4.7 mM KCl, 1.2 mM MgSO4, 2.5 mM CaCl2, 1.0 mM NaH2PO4, 25 mM NaHCO3 and 11.1 mM glucose, pH 7.4). Bronchial rings, 2 mm in length, were isolated from pulmonary bronchi using a dissection microscope. Then the bronchial segments were mounted in a small-vessel wire myograph chamber (Danish Myo Technology, Aarhus, Denmark) by threading on two steel wires (40 μm in diameter) secured to two supports. One support was attached to a force transducer for measurements of isometric force development, and the other was attached to a micrometer controlling ring circumference. The preparation was kept in the chamber, immersed in 5 ml of Krebs-Henseleit solution, bubbled with 5% CO2 and 95% O2 and maintained at 37° C. The initial isometric tension of bronchial ring was set to 0 mN prior to equilibration for 20 min. The bronchial ring was then stretched in order to keep the force at 5 mN followed by an additional equilibration for 20 min. The isometric forces produced by bronchial ring was recorded with a data acquisition and analysis program (Danish Myo Technology, Aarhus, Denmark).
The robust relaxation effect and low risk of toxicity of KE on airway smooth muscle indicates its promising prospects for development. To identify the active ingredients of KE, the KE was divided into three parts including EtOAc phase, n-BuOH phase and water phase using EtOAc and n-BuOH sequential extraction. Upon the airway smooth muscle rings reached a relative steady contraction state evoked by MCh, accumulated volume of these three phases was added to assess the relaxation capacity. […] On the other hand, 1 μL of EtOAc phase just relaxed the rings to 90%.
Their dose-responsive effect on relaxation of airway smooth muscle was measured. When the force evoked by acetylcholine reached a relatively steady state, kudinosides were added to the bath in cumulative concentrations (0.1 μM, 0.3 μM, 1 μM, 3 μM, 10 μM, 30 μM). […] When the concentration of kudinoside D increased to 10 μM, about 50% of the force was relaxed. Strikingly, upon treatment with 30 μM of kudinoside D, more than 80% of the force was relaxed (FIG. 5B). Similarly, 30 μM of kudinoside A also led to 80% inhibition of evoked force. Note that the relaxation effect of kudinosides was completely reversible, because the relaxed muscles restored response to MCh after washing off.

C[C@@H]1O[C@@H](O[C@H]2[C@H](O[C@H]3CC[C@@]4(C)C(CC[C@]5(C)C4C=CC4=C6[C@]7(CC[C@](C)(OC7=O)[C@@]6(C)O)CC[C@]45C)C3(C)C)OC[C@H](O)[C@@H]2O[C@@H]2O[C@H](CO)[C@@H](O)[C@H](O)[C@H]2O)[C@H](O)[C@H](O)[C@H]1O (stereo partly shown) [Kudinoside D]
relaxation of sustained Ca2+-induced contraction of skinned muscle strip [1]: could not relax this sustained contraction, and contrarily slightly enhanced it | force relaxed at 10 μM ([2]; force evoked by acetylcholine, cumulative concentrations, 10 μM): about 50% | force relaxed / inhibition of evoked force at 30 μM ([2]; force evoked by acetylcholine, cumulative concentrations, 30 μM): more than 80% | relaxation of evoked force of airway smooth muscle / bronchial rings ([2]; in vitro, concentration not given): significantly relaxed bronchial rings in a dose-dependent manner
